In patent publication US8349801B2, “Peptide ligands for G-protein coupled receptors” (priority 2006, dated 2013):
No end group written: not given here.

How the values were obtained:
[1] = molecular target: T1, MrgX1 (Homo sapiens, UniProt Q96LB2); experiment: Calcium flux in CHO-K1 cells co-transfected with MrgX1 and Gα16; type: cell-based; settings: dose response 1-3000 nM
T1 construct: expressed in transfected cells; host or cells: CHO-K1 (ATCC-CCL-61), transient co-transfection
Description: (§1) The assay was carried out in CHO cells were transiently transfected with the GPCR of choice, by utilizing the promiscuous Gα16 to divert signaling to the Gq pathway, thus enabling readout of GPCR activation by testing for Calcium flux as described by Liu et al 2003 (Biomol Screen 8, 39-49).
(§2) All the peptides thus obtained were tested for their ability to change calcium flux in CHO—K1 cells (ATCC-CCL-61) transiently co-transfected with an expression vector containing the GPCR of choice and expression vector containing the Gα16 encoding cDNA. Expression constructs containing cDNA clones for MrgX1, MrgX2, Mas or FPRL1 were commercially obtained in one of the following expression vectors: pcDNA3.1, pCMV6, or MO2.
Transient transfections were performed using CHO—K1 cells as host cells. […]
On the day of the experiment, cells were loaded with Fluo4-NW (Invitrogen) according to the manufacturer's recommendation. Plates were loaded into a FlexStation™ (Molecular Devices) plate reader and fluorescence was monitored. Seventeen seconds following initiation of reading, cells were stimulated with the indicated agonist/compound at final concentration of 1 μM. […]
Based on dose response experiments, EC50 best fit values were calculated by non-linear regression of sigmoidal dose-response curves, using Prism version 4 (GraphPad Software Inc., San Diego, Calif.). […]

[2] = tested on: Zymosan-induced murine dorsal air pouch model; type: in vivo, mice; settings: 200 μg/mouse i.v., 4 h
Description: In order to analyze the ability of P58 to exert in vivo effects via the FPRL1 receptor, an acute experimental model of inflammation, the Zymosan-induced murine dorsal air pouch model, was used.
Male out-bred Swiss albino mice were purchased from Harlan, UK (T.O. strain) and maintained on a standard chow pellet diet with tap water ad libitum and a 12:00 h light/dark cycle. All animals were housed for 7 days prior to experimentation to allow body weight to reach ˜30 g on the day of the experiment.
Drugs were stored at −20° C. and defrosted on the day of the experiment. Peptide P58 was provided lyophilized; it was taken back to room temperature and dissolved with sterile PBS before use to make an initial 1 mg/ml solution. […]
Flow cytometry was performed using FACScan analyser (Becton Dickinson, Cowley, UK) with air-cooled 100 mW argon laser tuned to 488 nm connected to an Apple Macintosh G3 computer running Cell Quest II software. […] Cells positive for GR-1 were detected in the FL2 channel (wavelength of 548 nm). Data are expressed as percentage of positive cells (in relation to the specific mAb). […] Once determined, quadrants were rigorously maintained for all analyses.
Data are shown for single mice, and also shown as mean±S.E. of (n) mice per group. Statistical differences were determined by ANOVA, plus Student Newman Keuls test. […]

[3] = molecular target: T2, FPRL1 (Homo sapiens, UniProt P25090); experiment: Calcium flux in CHO-K1 cells co-transfected with FPRL1 and Gα16; type: cell-based; design: expressed in transfected cells; host or cells: CHO-K1 (ATCC-CCL-61), transient co-transfection
T2 sequence (P25090 1-351): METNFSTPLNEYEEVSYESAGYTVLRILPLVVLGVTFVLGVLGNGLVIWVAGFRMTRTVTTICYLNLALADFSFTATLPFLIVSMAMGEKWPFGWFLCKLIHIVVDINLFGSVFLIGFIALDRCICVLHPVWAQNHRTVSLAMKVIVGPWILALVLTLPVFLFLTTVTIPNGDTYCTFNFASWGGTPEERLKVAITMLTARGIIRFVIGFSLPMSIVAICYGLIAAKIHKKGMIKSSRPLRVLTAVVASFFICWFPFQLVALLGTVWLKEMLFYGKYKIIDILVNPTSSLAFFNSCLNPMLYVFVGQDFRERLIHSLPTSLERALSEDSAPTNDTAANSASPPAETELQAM
Description: as §1, §2
Transient transfections were performed using CHO—K1 cells as host cells. Cells (12 million) were plated into T75 flasks on the day preceding transfection. Cells were transfected with the appropriate GPCR expression vector and with a vector expressing Gα16 using a lipid-based reagent, MTI, according to the manufacturer's recommendation. Cells were transfected for 5 hours, then re-plated into 96-well dishes (60,000 cells per well) and grown overnight.
On the day of the experiment, cells were loaded with Fluo4-NW (Invitrogen) according to the manufacturer's recommendation. Plates were loaded into a FlexStation™ (Molecular Devices) plate reader and fluorescence was monitored. Seventeen seconds following initiation of reading, cells were stimulated with the indicated agonist/compound at final concentration of 1 μM. Each 96 well plate contained cells transfected with one GPCR expression vector and each of the examined peptides was tested in triplicate.
We defined a hit as a peptide which elicited a clear and distinct increase in intracellular calcium that is clearly visible and statistically significant upon examination of the calcium trace for at least two repeats. The criterion for statistical significance was a p-value lower than 0.001 in a t-test comparing the levels of calcium before and after peptide addition.
Based on dose response experiments, EC50 best fit values were calculated by non-linear regression of sigmoidal dose-response curves, using Prism version 4 (GraphPad Software Inc., San Diego, Calif.). The formulae for the sigmoidal dose-response curves was defined as Y=Bottom+(Top−Bottom)/(1+10^ (LogEC50−X)*HillSlope))
The ability of Peptides to change calcium flux was examined in CHO—K1 cells co-transfected with FPRL1 and Gal 6.

[4] = molecular target: T2, FPRL1; experiment: Competitive radioligand binding assay ([125I] WKYMVm) to FPRL1 in CHO transfected cells; design: expressed in transfected cells; host or cells: CHO transfected cells; settings: 0.025 nM [125I] WKYMVm, 90 minutes at 25° C.; read-out: IC50, inhibition of W peptide binding
Description: The specific binding of Peptide 58 (SEQ ID NO:1) to FPRL1 was analyzed by testing its ability to compete with 0.025 nM [^125I] WKYMVm (W peptide), a known agonist of FPRL1, for binding to FPRL1 in CHO transfected cells. CKβ8-1 (aa 46-137), another known ligand of FPRL1 was used as a positive control in this assay (Chiang et al 2006, Pharmacological Reviews 58, 463-487). Peptides were incubated with cells for 90 minutes at 25° C., in the presence of Incubation Buffer (50 mM HEPES, pH 7.4, 100 mM NaCl, 5 mM KCl, 5 mM MgCl2, 2 mM Ca Cl2, 0.5% BSA) and the amount of radioactive W peptide was measured.

T1 sequence (Q96LB2 whole entry): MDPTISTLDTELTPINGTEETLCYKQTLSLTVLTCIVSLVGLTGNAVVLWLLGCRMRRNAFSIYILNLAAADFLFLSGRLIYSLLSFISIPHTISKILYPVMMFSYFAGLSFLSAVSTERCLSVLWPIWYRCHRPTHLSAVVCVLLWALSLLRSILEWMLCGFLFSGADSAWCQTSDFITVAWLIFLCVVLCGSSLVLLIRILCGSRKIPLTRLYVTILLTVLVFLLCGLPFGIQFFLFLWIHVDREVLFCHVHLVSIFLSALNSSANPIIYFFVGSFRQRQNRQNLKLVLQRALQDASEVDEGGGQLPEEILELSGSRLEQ

`CSCC[C@H](NC(=O)[C@H](Cc1ccccc1)NC(=O)CNC(=O)CNC(=O)[C@@H](N)Cc1ccc(O)cc1)C(=O)N[C@@H](CCCNC(=N)N)C(=O)N[C@@H](CCCNC(=N)N)C(=O)N[C@H](C(=O)NCC(=O)N[C@@H](CCCNC(=N)N)C(=O)N1CCC[C@H]1C(=O)N[C@@H](CCC(=O)O)C(=O)N[C@@H](Cc1c[nH]c2ccccc12)C(=O)N[C@@H](Cc1c[nH]c2ccccc12)C(=O)N[C@@H](CCSC)C(=O)N[C@@H](CC(=O)O)C(=O)N[C@@H](Cc1ccc(O)cc1)C(=O)N[C@@H](CCC(N)=O)C(=O)N[C@@H](CCCCN)C(=O)N[C@@H](CCCNC(=N)N)C(=O)N[C@@H](Cc1ccc(O)cc1)C(=O)NCC(=O)O)C(C)C` [BAM22, reference compound] was tested, and the EC50 [1] was ≥ 50 nM.
With “Ac2-26: a peptide derived from the N-terminus of AnnexinI; known FPRL1 agonist possessing anti-inflammatory activity; positive control (AMVSEFLKQAWFIENEEQEYVQTVK)” the “inhibition of leukocyte accumulation triggered by zymosan A” value [2] was “inhibited significantly” and the “inhibition of neutrophil (GR-1+) accumulation triggered by zymosan A” value ([2]; FACS) was 52%.
In the case of GIGSVWHWKHRVATRFTLPRFLQ [Peptide P60_S], the EC50 [1] is reported as ≥ 300 nM.
TIPMFVPESTSKLQKFTSWFM-NH2 [Peptide P58] was tested, and the “calcium flux relative to the negative control” value ([3]; 1 μM, three wells, about 20 to 90 seconds) was “increased calcium flux”, the “calcium flux, P58 and derivatives” value ([3]; dose response) was “elicited calcium flux” and the IC50 [4] was 189 nM.
